From patent EP0336132A1, “1-Phenylpropyl compounds” (Byk Gulden Lomberg Chemische Fabrik GmbH, priority 1988, dated 1989)
Read-outs that look alike come from different tables or passages of the source.

Tested on: genetisch hypertonen Ratten
Assay: Antihypertensive effect in the spontaneously hypertensive rat, systolic blood pressure by tail cuff after oral dosing
Type: in vivo, Ratte
Conditions: male SHR/N/Ibm/Bm rats, N=6, mean of day 1 and 2; for change in vivo at 25 µmol/kg / change in vivo at 10 µmol/kg: Rattus norvegicus, po; for change in vivo at 25 µmol/kg / BP (% Änderung vs. Kontrolle), Mittelwert für Meßzeitpunkte: Stunden nach Gabe (1. und 2. Tag) 2h / BP (% Änderung vs. Kontrolle), Mittelwert für Meßzeitpunkte: Stunden nach Gabe (1. und 2. Tag) 6h: 25 µmol/kg p.o. once daily on two consecutive days; for change in vivo at 10 µmol/kg: 10 µmol/kg p.o. once daily on two consecutive days
Source text: Die antihypertensive Wirksamkeit der erfindungsgemäßen Verbindungen kann am Modell der spontan hypertonen Ratte nachgewiesen werden.
Zur Bestimmung der antihypertensiven Wirkung werden die unten aufgeführten Verbindungen in den angegebenen Dosen an zwei aufeinander folgenden Tagen an je 6 männlichen Ratten (Stamm SHR/N/Ibm/Bm, 250-350 g) mit genetisch bedingtem Hochdruck (systolischer Blutdruck > 180 mmHg) täglich einmal mittels Schlundsonde verabfolgt. Die Messung des Blutdrucks erfolgt jeweils 2, 6 und 24 Stunden nach Substanzgabe.
Die Blutdruckmessung wird in einer Wärmekammer bei 36°C vorgenommen, um eine bessere Durchblutung der Schwanzarterie zu erreichen. Hierzu werden die Tiere in perforierte Lochblechkäfige verbracht und 20 - 40 Min. nach Beginn der Aufwärmung gemessen. Zur Messung des systolischen arteriellen Drucks wird eine ringförmige Manschette mit aufblasbarer Gummimembran zur Unterbindung der Durchblutung und ein ringförmiger Piezokristallaufnehmer zur Erfassung der Pulswellen auf den Schwanz aufgeschoben. Nach erfolgter Unterbindung des Blutstroms in der Schwanzarterie wird der Manschettendruck kontinuierlich reduziert. Die Wiederkehr der Pulswellen bei Druckablassen wird automatisch als systolischer Blutdruck erkannt und ausgedruckt (Bühler, R. et al.: Microprocessor-based automation of blood pressure measurement in the conscious rat. Proceedings of the 4th international symposium on rats with spontaneous hypertension and related studies, Rascher, R. et al. (Eds.), Schattauer Verlag, Stuttgart, New York, 1982, S. 410-413). Pulssignale und Druckverlauf werden zur Auswertung graphisch aufgezeichnet.
Zur Gewöhnung an den Meßvorgang werden die Tiere vor Substanzprüfung 14 Tage trainiert. In der zweiten Trainingswoche werden Blutdruck-Vorwerte erhoben. Tiergruppen, die Substanz erhalten, werden gegen eine Kontrollgruppe geprüft. In der anschließenden Tabelle werden die untersuchten Verbindungen durch laufende Nummern gekennzeichnet, die mit den jeweiligen Beispielnummern übereinstimmen. Bei getrennten Diastereomeren ist der Drehwert des untersuchten Diastereomers angegeben.
Tabelle I gibt für die Vertreter der erfindungsgemäßen Verbindungen die prozentuale Senkung des Blutdrucks (BP) nach oraler Verabreichung bei der Ratte wieder.
%-Änderungen (BP) an genetisch hypertonen Ratten nach täglich einmaliger p.o.-Applikation an zwei aufeinanderfolgenden Tagen (N=6/Dosis).

[1] = 2 h, 2h after dosing, read-out: BP (% Änderung vs. Kontrolle), Mittelwert für Meßzeitpunkte: Stunden nach Gabe (1. und 2. Tag) 2h
[2] = 6 h, 6h after dosing, read-out: BP (% Änderung vs. Kontrolle), Mittelwert für Meßzeitpunkte: Stunden nach Gabe (1. und 2. Tag) 6h
[3] = 24 h, 24h after dosing, read-out: BP (% Änderung vs. Kontrolle), Mittelwert für Meßzeitpunkte: Stunden nach Gabe (1. und 2. Tag) 24h

Row | SMILES | change in vivo at 25 µmol/kg [1] [%] | change in vivo at 25 µmol/kg [2] [%] | change in vivo at 25 µmol/kg [3] [%] | other results
1 | CCN(C)[C@@H](C)[C@H](OC(=O)C1=C(C)NC(C)=C(C(=O)OC)C1c1cccc([N+](=O)[O-])c1)c1ccccc1 (single isomer, unassigned) [Beispiel 12] | -48.5 | -38 |  | 
2 | COC(=O)C1=C(C)NC(C)=C(C(=O)O[C@H](c2ccccc2)[C@H](C)N)C1c1cccc([N+](=O)[O-])c1 (single isomer, unassigned) [16 (+216,4°)] | -59 | -56.5 | -21.5 | 
3 | COC(=O)C1=C(C)NC(C)=C(C(=O)O[C@@H](c2ccccc2)[C@@H](C)N)C1c1cccc([N+](=O)[O-])c1 (single isomer, unassigned) [17 (-104,3°)] | -56 | -47 | -14.5 | 
4 | COC(=O)C1=C(C)NC(C)=C(C(=O)O[C@H](c2ccccc2)[C@H](C)N(C)Cc2ccccc2)C1c1cccc([N+](=O)[O-])c1 (single isomer, unassigned) [Beispiel 11] | -53.5 | -48 |  | 
5 | COC(=O)C1=C(C)NC(C)=C(C(=O)O[C@H](c2ccccc2)[C@@H](C)N(C)Cc2cc(OC)c(OC)c(OC)c2)C1c1cccc([N+](=O)[O-])c1 (single isomer, unassigned) [Beispiel 15] | -62.5 | -56 | -37 | 
6 | CN[C@H](C)[C@H](OC(=O)C1=C(C)NC(C)=C(C(=O)OC)C1c1cccc([N+](=O)[O-])c1)c1ccccc1 (single isomer, unassigned) [10 (+165,5°)] | -52 | -39.5 |  | 
7 | CCOC(=O)C1=C(C)NC(C)=C(C(=O)O[C@H](c2ccccc2)[C@H](C)N(C)C)C1c1cccc([N+](=O)[O-])c1 (single isomer, unassigned) [Beispiel 1a] |  |  |  | BP (% Änderung vs. Kontrolle), Mittelwert für Meßzeitpunkte: Stunden nach Gabe (1. und 2. Tag) 2h (2h after dosing): -47,5%; BP (% Änderung vs. Kontrolle), Mittelwert für Meßzeitpunkte: Stunden nach Gabe (1. und 2. Tag) 6h (6h after dosing): -44,5%
8 | CCOC(=O)C1=C(C)NC(C)=C(C(=O)O[C@H](c2ccccc2)[C@H](C)N(C)C)C1c1cccc([N+](=O)[O-])c1 (single isomer, unassigned) [Beispiel 1b] |  |  |  | BP (% Änderung vs. Kontrolle), Mittelwert für Meßzeitpunkte: Stunden nach Gabe (1. und 2. Tag) 2h (2h after dosing): -40,0%; BP (% Änderung vs. Kontrolle), Mittelwert für Meßzeitpunkte: Stunden nach Gabe (1. und 2. Tag) 6h (6h after dosing): -30,3%
9 | COC(=O)C1=C(C)NC(C)=C(C(=O)O[C@H](c2ccccc2)[C@H](C)N(C)CC=Cc2ccccc2)C1c1cccc([N+](=O)[O-])c1 (single isomer, unassigned) [Beispiel 14] | -51.5 | -41.5 |  | 
10 | CN[C@@H](C)[C@@H](OC(=O)C1=C(C)NC(C)=C(C(=O)OC)C1c1cccc([N+](=O)[O-])c1)c1ccccc1 (single isomer, unassigned) [9 (-66,3°)] | -55 | -49.5 |  | 
11 | CN[C@@H](C)[C@H](OC(=O)C1=C(C)NC(C)=C(C(=O)OC)C1c1cccc([N+](=O)[O-])c1)c1ccccc1 (single isomer, unassigned) [8 (+202,6°)] | -55 | -43 | -10.5 | 
12 | CCOC(=O)C1=C(C)NC(C)=C(C(=O)O[C@@H](c2ccccc2)[C@@H](C)N(C)C)C1c1cccc([N+](=O)[O-])c1 (single isomer, unassigned) [Beispiel 2b] | -40 | -34.3 |  | 
13 | COC(=O)C1=C(C)NC(C)=C(C(=O)O[C@H](c2ccccc2)[C@H](C)N(C)Cc2cc([N+](=O)[O-])ccc2OC)C1c1cccc([N+](=O)[O-])c1 (single isomer, unassigned) [Beispiel 19] |  |  |  | change in vivo at 10 µmol/kg [1]: -42%; change in vivo at 10 µmol/kg [2]: -23.5%; change in vivo at 10 µmol/kg [3]: -10.5%
14 | CN[C@H](C)[C@@H](OC(=O)C1=C(C)NC(C)=C(C(=O)OC)C1c1cccc([N+](=O)[O-])c1)c1ccccc1 (single isomer, unassigned) [7 (-88°)] | -56 | -46 | -11.5 | 
